This note sets out measurements from patent US20040014683A1, “Sugar-derived gellant for hydrogel formation” (priority 2001, published 2004).

This series can be described thus: Gel-forming ability test (heat to dissolve, cool to 25° C.). Conditions: 1 mg gelatinizer in water (900 mg) and methanol (100 mg); heated, gradually cooled, left at room temperature approximately 2-5 hours; tube inverted. It counts as physicochemical. The protocol:
The dodecanoylaminophenol-β-D-glucopyranoside and dodecanoylaminophenol-β-D-galactopyranoside (1 mg of each) obtained in the above experiments were respectively weighed out into test tubes, and a mixed solvent of water (900 mg) and methanol (100 mg) was added. The mixture was heated to ensure complete dissolution. Subsequently, it was gradually cooled, and left at room temperature for approximately 2-5 hours.
The gel-forming ability was evaluated as follows.
The solvent was water (including a small amount of methanol and ethanol), methanol, ethanol, 1-butanol, t-butanol, tetrahydrofuran, chloroform, dichloromethane, n-hexane, ethyl acetate, dimethylformamide or dimethyl sulfoxide.
One of the aforesaid solvents was mixed in a test tube wherein the two types of gelatinizer prepared in the Examples were sealed such that the concentration of gelatinizer was 0.1-3.0 wt %, and this mixture was heated until the solids dissolved. The resulting solution was cooled to 25° C. for one hour. The gelatinizer and solvent were introduced into a test tube capped by a diaphragm, and heated in the oil bath until the solids dissolved. This solution was cooled to 25° C.

On to “dodecanoylaminophenol-β-D-galactopyranoside”, for which the hydrated gel formation result was “hydrated gel which did not collapse even when inverted”. To “dodecanoylaminophenol-β-D-glucopyranoside” belongs “hydrated gel which did not collapse even when inverted”.
